Consider one molecule from PMC8137473, “Preclinical trial of a MAP4K4 inhibitor to reduce infarct size in the pig: does cardioprotection in human stem cell-derived myocytes predict success in large mammals?” (Basic Research in Cardiology, 2021).

pIC50: −log10 of the molar value. Bounds are passed on as bounds.

Broadly, the pIC50 is the IC50 on a negative log10 scale, so that one unit is a factor of ten.

One test addresses MAP4K4 (Homo sapiens, UniProt O95819). Put plainly: cell-free biochemical assay, MAP4K4 inhibition. An excerpt: DMX-10001, a rapidly hydrolyzed phosphate pro-drug of DMX-5804, was produced by Domainex Ltd, by a modification of the latter’s synthetic route, attaching a hydrolysable phosphate group via a linker to the core of DMX-5804 (Fig. 1a). This removes a key hydrogen bonding group and prevents DMX-10001 from binding to the hinge region of the MAP4K4 kinase domain. […] Furthermore, this modest value is likely driven by minute levels of DMX-5804 either present in the sample or generated during by hydrolysis during the assay.

A further test has as its system porcine model of MI. The test is described as follows: efficacy study, LAD occlusion 60 min / reperfusion 24 h: infarct size, no-reflow, area at risk. The class given is in vivo, swine. Here is the method:
Next, an efficacy study was performed, in adherence to published guidelines for rigor and reproducibility, to evaluate the postulated benefit of DMX-10001 in a large-mammal model of MI. Briefly, 36 closed-chest swine (41 ± 2 kg) were subjected to regional ischemia by occluding the left anterior descending coronary artery (LAD) distal to the first diagonal branch for 60 min, followed by 24 h of reperfusion. Treatment with DMX-10001 (60 mg/kg/h for 0.5 h, followed by 17 mg/kg/h for 23.5 h) versus the vehicle was initiated 20 min prior to reperfusion and continued for 1 day. After 2 h of reperfusion, animals were allowed to recover from anesthesia. At 24 h of reperfusion, the infarct area (IA), area of no-reflow (NR), and area at ischemic risk (AAR) were determined. Transthoracic short-axis B-mode echocardiograms and measurements of LV pressure and its first derivative (LVdP/dt) were obtained at baseline and at 24 h of reperfusion. LV pressure–volume measurements were obtained at 24 h of reperfusion. Heart-type fatty acid binding protein (hFABP) release was measured, as a biomarker that correlates with IS and NR in swine at least as well as cardiac troponin I [30].
The LAD was catheterized with a standard clinical guiding catheter (JL3.5, 6F, Medtronic, Minneapolis, MN), and quantitative coronary angiography (CAAS, PIE Medical, Maastricht, The Netherlands) was performed following 2 mg isosorbidedinitrate (Cedocard, Nycomed, Hoofddorp, The Netherlands) and using iodixanol as contrast agent (Visipaque™, GE Healthcare BV, Eindhoven, The Netherlands). Then, an over-the-wire coronary angioplasty balloon (Sprinter OTW, 2–3 mm × 6 mm, Medtronic, Minneapolis, MN) on a standard guide wire (0.014″, 180 cm, ASAHI SION blue, ASAHI Intecc co Ltd, Aichi, Japan) was carefully positioned under fluoroscopic guidance distal to the first diagonal branch. Following balloon inflation, total coronary occlusion was confirmed by angiography (at baseline and at 58 min of occlusion) and by ECG changes. Animals that developed VF during the protocol were defibrillated within 25 ± 10 s. After 1 h of occlusion, the coronary balloon was deflated to establish reperfusion, which was angiographically confirmed to ensure an adequate coronary blood flow to the entire LAD perfusion territory. Heart rate, aortic blood pressure, and ECG were monitored until 2 h of reperfusion.
Twenty min before the onset of reperfusion, an initial rapid administration was started (30 min infusion, 60 mg/kg/h, Alaris CC, Cardinal Health, Role, Switzerland), followed after 10 min of reperfusion by a lower sustained dose (23.5 h infusion, 17 mg/kg/h, Myfuser, CANOX medical Device Srl, Capurso, Italy). The dosing regimen was determined by iterative computer modeling (XenoGesis Ltd, Alderley Park, UK) (Fig. 1b), based on prior dose-finding studies in pigs (data not shown).
After completing the post-infarct LV functional measurements on day two, the LAD was again catheterized, as before. The over-the-wire coronary angioplasty balloon and guide wire were positioned under fluoroscopic guidance at the same position, using anatomic landmarks (distance from sidebranches) visualized by coronary angiography. Through the lumen of the balloon, 5 ml of 4% (w/v) thioflavin-S solution (Sigma, Zwijndrecht, The Netherlands) were injected, allowing the area of no-reflow within the AAR to be measured later histologically. The balloon was re-inflated to re-occlude the LAD and a sternotomy was performed. Next, a bolus of 40 ml of a 15% (w/v) Evans Blue solution was injected into the left atrium for negative staining of the AAR. To facilitate excision, the heart was arrested via induction of VF by gently touching the LV epicardium with a 9 V battery. The LV was isolated and sectioned into 5 transverse slices. The AAR and area of no-reflow (NR), visualized using UV light, were quantified in all sections. […]

Chain of MAP4K4 (O95819 whole entry, species assumed, the tested form may be a part): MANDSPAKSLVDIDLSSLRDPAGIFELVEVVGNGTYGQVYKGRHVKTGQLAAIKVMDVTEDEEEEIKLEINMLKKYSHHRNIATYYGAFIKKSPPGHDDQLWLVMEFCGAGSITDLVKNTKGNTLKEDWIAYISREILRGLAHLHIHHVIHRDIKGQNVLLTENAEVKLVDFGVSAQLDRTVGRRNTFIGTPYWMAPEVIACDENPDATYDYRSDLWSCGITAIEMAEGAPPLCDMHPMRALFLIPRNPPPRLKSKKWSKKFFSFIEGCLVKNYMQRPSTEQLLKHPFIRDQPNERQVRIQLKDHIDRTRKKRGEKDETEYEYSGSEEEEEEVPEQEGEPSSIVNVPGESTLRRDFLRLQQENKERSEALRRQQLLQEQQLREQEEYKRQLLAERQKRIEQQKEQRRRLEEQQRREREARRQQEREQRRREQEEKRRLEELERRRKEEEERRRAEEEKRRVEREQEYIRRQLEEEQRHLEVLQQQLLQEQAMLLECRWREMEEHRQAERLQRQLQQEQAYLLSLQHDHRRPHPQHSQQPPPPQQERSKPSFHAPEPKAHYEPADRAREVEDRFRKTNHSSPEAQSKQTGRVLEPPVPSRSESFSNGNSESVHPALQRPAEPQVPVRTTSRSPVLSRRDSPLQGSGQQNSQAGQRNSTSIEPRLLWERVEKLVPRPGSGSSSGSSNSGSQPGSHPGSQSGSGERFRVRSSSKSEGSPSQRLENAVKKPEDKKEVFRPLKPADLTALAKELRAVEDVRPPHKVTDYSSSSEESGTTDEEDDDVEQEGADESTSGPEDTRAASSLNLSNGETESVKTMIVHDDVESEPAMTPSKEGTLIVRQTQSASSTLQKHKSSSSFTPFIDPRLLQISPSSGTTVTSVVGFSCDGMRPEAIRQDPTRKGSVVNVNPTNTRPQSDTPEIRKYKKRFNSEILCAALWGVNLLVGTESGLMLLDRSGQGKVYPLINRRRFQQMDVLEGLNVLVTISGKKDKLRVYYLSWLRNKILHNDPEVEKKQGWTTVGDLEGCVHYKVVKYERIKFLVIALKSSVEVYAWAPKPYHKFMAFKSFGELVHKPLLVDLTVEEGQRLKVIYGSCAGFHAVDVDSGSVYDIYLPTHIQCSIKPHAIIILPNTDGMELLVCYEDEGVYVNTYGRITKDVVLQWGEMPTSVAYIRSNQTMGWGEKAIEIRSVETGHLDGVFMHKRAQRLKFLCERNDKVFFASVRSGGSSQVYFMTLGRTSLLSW

As to `COCCOc1ccc(-c2cn(-c3ccccc3)c3ncn(COP(=O)(O)O)c(=O)c23)cc1` [DMX-10001], the “difference in IC50 against MAP4K4, DMX-10001 vs DMX-5804” value at MAP4K4 was greater than 750 fold. On MAP4K4 (cell-free biochemical assays, read-out: IC50 against MAP4K4), the pIC50 was 5.64. This molecule registered an IS/AAR in the test with porcine model of MI (excluding one statistical outlier, n = 11) of 82.1 ± 8.6%. Besides, the “difference in IS/AAR vs the vehicle control” value in the test with porcine model of MI (excluding one statistical outlier, P = 0.0562) is reported as 7%. In addition, the “effect on NR, NR/AAR or NR/IS” value in the test with porcine model of MI (full cohort) is “no significant effect”. Besides, in the test on porcine model of MI (full cohort, n = 12), the IS/AAR worked out at 76.3 ± 21.6%, the “extent of infarction (IS)” value worked out at 18.2 ± 5.8 g and the “extent of infarction (IS) as % of LV mass” value amounted to 17.2 ± 5.7%. Further, the “reduction of the extent of infarction in grams or % of LV mass vs vehicle” value in the test with porcine model of MI (full cohort, n = 12 per group) is 27%. Moreover, the “reduction in mean IS/AAR vs vehicle” value with porcine model of MI (full cohort, not significant (P = 0.0817)) was determined as 13%. Besides, the “IS or no-reflow corrected for the area at ischemic risk” value in the test with porcine model of MI (in vivo) is “No significant reduction”. Besides, the “ANCOVA: slopes of IS and NR as a function of AAR, NR as a function of IS” value with porcine model of MI (n = 11) is listed as “No significant differences”.
